Data as given in US8263643B2, “Polyphenol compounds with modulating neurotransmitter release” (Sungkyunkwan University Foundation for Corporate …, priority 2007, dated 2012).

Legend:
[1] = target: T1, SNARE complex (SNAP25, SynH3, Vps) (UniProt P60879+P63045+Q16623); test: SDS-PAGE analysis of SNARE complex formation; type: biochemical; conditions: for SNARE complex formation (%): control = 100, footnote: [phenolic compound]:SNAP-25 = 1:1, SNARE proteins 10 μM each, polyphenol 100 μM, room temperature 30 min; for Inhibition of SNARE complex formation (in words): FIG. 2, concentration series; for Ratio for inhibition by 50% (IR50), SNARE complex formation: molar concentration ratio phenolic compound:SNAP-25, average of at least three measurements
T1 construct: SynH3 (AF217197); Vps (NM012663); made in house; host or cells: E. coli (Codon (+) RIL, Novagen)
T1 sequence (P60879 whole entry): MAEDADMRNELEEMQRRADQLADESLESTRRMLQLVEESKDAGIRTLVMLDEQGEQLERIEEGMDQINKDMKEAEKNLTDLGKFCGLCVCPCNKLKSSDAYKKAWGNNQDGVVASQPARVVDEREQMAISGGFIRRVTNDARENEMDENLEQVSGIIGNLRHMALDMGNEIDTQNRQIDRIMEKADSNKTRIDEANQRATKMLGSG
T1 sequence (Q16623 192-254 limits assumed): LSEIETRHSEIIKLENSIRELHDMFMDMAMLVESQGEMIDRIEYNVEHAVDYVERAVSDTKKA
T1 sequence (P63045 2-94 limits assumed): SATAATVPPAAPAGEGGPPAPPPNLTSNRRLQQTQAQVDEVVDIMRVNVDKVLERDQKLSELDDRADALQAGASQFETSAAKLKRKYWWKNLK
Method: A SNARE complex is strong enough so as not to be untwisted by SDS. On the basis of such a property, a SDS-PAGE analysis was performed in order to determine the formation of a SNARE complex. Polyphenol compounds used in the present Example were purchased from Sigma-Aldrich, Wako Chemical, and Extrasynthese.
In order to produce SNARE proteins, SNARE proteins, such as, SNAP25 (NM011428), syntaxin 1A (AF217197), VAMP2 (NM012663), SynH3 (AF217197), and Vps (NM012663), were purified in biologically transformed E. coli (Codon (+) RIL, Novagen).
Then, the materials were quickly mixed by a vortex, and were reacted at room temperature for 30 minutes. […]

[2] = target: T2, membrane fusion caused by SNARE (SNAP25, syntaxin 1A, VAMP2) (UniProt P60879+P63045+Q16623); test: Membrane fusion assay with SNARE-reconstituted liposomes (fluorescence); type: biochemical; conditions: for remaining activity at 20 µM / Membrane fusion caused by SNARE (% of fusion without inhibitor): 20 μM phenolic compound, 100% = no inhibitor added; for remaining activity at 20 µM: read-out: Membrane fusion caused by SNARE (% of fusion without inhibitor); for Reduction of membrane fusion (in words): FIG. 3; for Ratio for inhibition by 50% (IR50), membrane fusion: molar concentration ratio phenolic compound:SNAP-25, average of at least three measurements
T2 construct: made in house; host or cells: E. coli (Codon (+) RIL, Novagen)
T2 sequence (P60879 whole entry, the tested form may be a part): as the sequence (P60879 whole entry) above
T2 sequence (Q16623 whole entry, the tested form may be a part): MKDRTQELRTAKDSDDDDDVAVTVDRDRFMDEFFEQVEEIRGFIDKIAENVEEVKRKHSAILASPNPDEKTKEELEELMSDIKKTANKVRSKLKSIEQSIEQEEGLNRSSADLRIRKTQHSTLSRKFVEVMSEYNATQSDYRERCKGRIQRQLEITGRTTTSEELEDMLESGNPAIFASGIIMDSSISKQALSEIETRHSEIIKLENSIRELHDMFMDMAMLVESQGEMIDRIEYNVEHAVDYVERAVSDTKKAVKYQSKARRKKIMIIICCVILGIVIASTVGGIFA
T2 sequence (P63045 whole entry, the tested form may be a part): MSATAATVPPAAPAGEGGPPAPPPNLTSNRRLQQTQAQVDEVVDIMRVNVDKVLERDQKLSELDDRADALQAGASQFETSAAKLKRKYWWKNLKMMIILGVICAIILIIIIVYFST
Method: In order to produce SNARE proteins, SNARE proteins, such as SNAP25 (NM011428), syntaxin 1A (AF217197), and VAMP2 (NM012663), were purified in biologically transformed E. coli (Codon (+) RIL, Novagen).
In order to prepare liposome (fine membrane) marked with a fluorescent substance, POPC (62 mol %), DOPS (35 mol %), NBD-PS (1.5 mol %) and a fluorescent substance Rhodamin-PE (1.5 mol %) were mixed to obtain 10 mM of liposome (v-vesicle). Also, in order to prepare a liposome not marked with a fluorescent substance, DOPS and POPC were mixed in a molar concentration ratio of 35:65 to obtain 50 mM of liposome (t-vesicle). In order to prepare a complex of the purified SNAP25 and syntaxin 1a, the SNAP25 and the syntaxin 1a were mixed in a molar concentration ratio of 1:1, and then were reacted at room temperature for 1 hour. Then, the resultant mixture and the liposome not marked with a fluorescent substance were mixed in a molar ratio of 100:1. The VAMP2 and the liposome marked with a fluorescent substance were mixed in a molar ratio of 50:1. Then, each of the two kinds of liposomes was dialyzed by using 10 kDa dialyzing membrane through agitation at 4° C. for 24 hours, and the liposomes were mixed in a ratio of 3:7 (v-vesicle t-visicle). Next, fluorescence was measured by using a fluorometer (SpectraMax M2 manufactured by Molecular Device).
Herein, 100% indicates the degree of membrane fusion in the state where no inhibitor was added. As the value is smaller, the inhibiting degree is higher.

Structure (SMILES)	SNARE complex formation (%) [1] [%]	remaining activity at 20 µM [2] [%]	Inhibition of SNARE complex formation (in words) [1]	Ratio for inhibition by 50% (IR50), SNARE complex formation [1]	Reduction of membrane fusion (in words) [2]	Ratio for inhibition by 50% (IR50), membrane fusion [2]	Membrane fusion caused by SNARE (% of fusion without inhibitor) [2] [%]
O=c1cc(-c2ccccc2)oc2cc(O)cc(O)c12 [Chrysin]	98.12 ± 6.56	121 ± 1.27					
O=c1c(O)c(-c2ccc(O)c(O)c2)oc2cc(O)ccc12 [Fisetin]	90.14 ± 10.42	32.1 ± 4.14					
O=c1oc2c(O)c(O)cc3c(=O)oc4c(O)c(O)cc1c4c23 [Ellagic acid]	87.54 ± 9.50	22 ± 2.05	inhibit the formation of a SNARE complex by 50% at a low concentration	27.8	can reduce membrane fusion	7.31	
COc1cc2c(c(OC)c1OC)-c1c(cc3c(c1OC)OCO3)C[C@H](C)[C@H](C)C2 [Gomisiin N]	99.04 ± 5.17						92.31 ± 2.37
O=C(O)/C=C/c1ccc(O)cc1 [p-Coumaric acid]	91.21 ± 11.99	123 ± 14.3					
O=c1c(-c2ccc(O)cc2)coc2cc(O)ccc12 [Daidzein]	104.06 ± 24.43	113 ± 13.1					
Oc1cc(O)c2cc(O)c(-c3ccc(O)c(O)c3)[o+]c2c1 [Cyanidin]	67.12 ± 20.31	7.23 ± 1.08					
O=c1c(O)c(-c2ccc(O)c(O)c2)oc2cc(O)cc(O)c12 [Quercetin]	79.80 ± 10.77	33.4 ± 2.24	inhibit the formation of a SNARE complex by 50% at a low concentration	24.9	can reduce membrane fusion	2.87	
O=c1cc(-c2ccc(O)c(O)c2)oc2cc(O)cc(O)c12 [Luteolin]	86.23 ± 8.14	65.5 ± 2.09		38.2	can reduce membrane fusion	4.02	
O=C(O[C@@H]1Cc2c(O)cc(O)cc2O[C@@H]1c1cc(O)c(O)c(O)c1)c1cc(O)c(O)c(O)c1 [EGCG, Epigallocatechin gallate]	112.38 ± 10.43						57.59 ± 3.39
O=C(CCc1ccc(O)cc1)c1c(O)cc(O)cc1O[C@@H]1O[C@H](CO)[C@@H](O)[C@H](O)[C@H]1O [Phloridzin]	115.19 ± 23.74	86.3 ± 3.87					
O=C(O)c1cc(O)ccc1O [Gentisic acid]	100.16 ± 2.19	96.7 ± 2.38					
COc1cc2c(c(OC)c1OC)-c1c(cc(OC)c(OC)c1OC)C[C@](C)(O)[C@@H](C)C2 [Schizandrin]	107.60 ± 13.30	116 ± 5.52					
O=c1c(O)c(-c2ccc(O)c(O)c2)oc2c(O[C@@H]3O[C@H](CO)[C@@H](O)[C@H](O)[C@H]3O)c(O)cc(O)c12 [Gossypin]							103.19 ± 9.01
COc1cc(/C=C/C(=O)O)ccc1O [Ferulic acid]	93.38 ± 14.39	118 ± 2.79					
O=c1c(O)c(-c2ccc(O[C@@H]3O[C@H](CO)[C@@H](O)[C@H](O)[C@H]3O)c(O)c2)oc2cc(O)cc(O)c12 [Spiraeoside]		107 ± 6.72					
O=C1c2c(O)cc(O)cc2O[C@H](c2ccc(O)c(O)c2)[C@H]1O [Taxifolin]		109 ± 3.92					
